System: HEK293T cells carrying the ATF4 luciferase reporter
Experiment: ATF4-Luc assay, in vitro model of Vanishing Cell White Matter Disease (VWMD)
Format: cell-based
Settings: Homo sapiens, HEK-293T, 1 μg/mL tunicamycin, 7 hours, One Glo luminescence
Method in brief: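 Reporter cells were stably generated by retroviral transduction and puromycin selection, then seeded at 30,000 cells/well. Next day, cells received 1 μg/mL tunicamycin with 200 nM test compound for 7 h, and luciferase luminescence was read with a one-step reagent. Values reported as EC50.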

Which EC50 does the source give for `Cc1cc(C)n2nc(C(=O)NC34CCC(NC(=O)COc5ccc(Cl)c(F)c5)(CC3)[C@@H](O)C4)nc2n1` [Compound 750, N-{(3S)-4-[2-(4-chloro-3-fluorophenoxy)acetamido]-3-hydroxybicyclo[2.2.2]octan-1-yl}-5,7-dimethyl[1,2,4]triazolo[1,5-a]pyrimidine-2-carboxamide] here?
The EC50 was greater than 2000 nM.

How did the EC50 turn out when `O=C(COc1ccc(Cl)c(F)c1)NC12CCC(NC(=O)c3csc(C4CC4)n3)(CC1)C[C@@H]2O` [Compound 751, N-{(3S)-4-[2-(4-chloro-3-fluorophenoxy)acetamido]-3-hydroxybicyclo[2.2.2]octan-1-yl}-2-cyclopropyl-1,3-thiazole-4-carboxamide] was run?
Its EC50 is less than 50 nM.

Which EC50 does the source give for `O=C(COc1ccc(Cl)c(F)c1)NC12CCC(NC(=O)c3ccc(C(F)F)cn3)(CC1)C[C@@H]2O` [Compound 752, N-{(3S)-4-[2-(4-chloro-3-fluorophenoxy)acetamido]-3-hydroxybicyclo[2.2.2]octan-1-yl}-5-(difluoromethyl)pyridine-2-carboxamide] here?
Its EC50 is less than 50 nM.

How did the EC50 turn out when `O=C(COc1ccc(Cl)c(F)c1)NC12CCC(NC(=O)c3ccc(CO)cn3)(CC1)C[C@@H]2O` [Compound 753, N-{(3S)-4-[2-(4-chloro-3-fluorophenoxy)acetamido]-3-hydroxybicyclo[2.2.2]octan-1-yl}-5-(hydroxymethyl)pyridine-2-carboxamide] was run?
The EC50 was 250 to 1000 nM.

Which EC50 does the source give for `CCc1ccc(C(=O)NC23CCC(NC(=O)COc4ccc(Cl)c(F)c4)(CC2)[C@@H](O)C3)nc1` [Compound 754, N-{(3S)-4-[2-(4-chloro-3-fluorophenoxy)acetamido]-3-hydroxybicyclo[2.2.2]octan-1-yl}-5-ethylpyridine-2-carboxamide] here?
The EC50 was less than 50 nM.

With `O=C(COc1ccc(Cl)c(F)c1)NC12CC(Nc3cnc(C(F)(F)F)nc3)(C1)C2` [Compound 755, 2-(4-chloro-3-fluorophenoxy)-N-(3-{[2-(trifluoromethyl)pyrimidin-5-yl]amino}bicyclo[1.1.1]pentan-1-yl)acetamide] as the molecule, how does the EC50 read?
The EC50 was 250 to 1000 nM.

`COc1cncc(NC23CC(NC(=O)COc4ccc(Cl)c(F)c4)(C2)C3)n1` [Compound 756, 2-(4-chloro-3-fluorophenoxy)-N-{3-[(6-methoxypyrazin-2-yl)amino]bicyclo[1.1.1]pentan-1-yl}acetamide] was tested. Which EC50 did it give?
Its EC50 is 250 to 1000 nM.

How did the EC50 turn out when `O=C(COc1ccc(Cl)c(F)c1)NC12CC(Nc3cc(C(F)(F)F)ccn3)(C1)C2` [Compound 757, 2-(4-chloro-3-fluorophenoxy)-N-(3-{[4-(trifluoromethyl)pyridin-2-yl]amino}bicyclo[1.1.1]pentan-1-yl)acetamide] was run?
The EC50 was greater than 2000 nM.

`O=C(COc1ccc(Cl)c(Cl)c1)NC12CCC(NC(=O)c3cc(C(F)F)no3)(CC1)C[C@@H]2O` [Compound 758, N-{(3S)-4-[2-(3,4-dichlorophenoxy)acetamido]-3-hydroxybicyclo[2.2.2]octan-1-yl}-3-(difluoromethyl)-1,2-oxazole-5-carboxamide] was tested. Which EC50 did it give?
Its EC50 is less than 50 nM.

With `Cc1cc(C(=O)NC23CCC(NC(=O)COc4ccc(Cl)c(Cl)c4)(CC2)[C@@H](O)C3)on1` [Compound 759, N-{(3S)-4-[2-(3,4-dichlorophenoxy)acetamido]-3-hydroxybicyclo[2.2.2]octan-1-yl}-3-methyl-1,2-oxazole-5-carboxamide] as the molecule, how does the EC50 read?
The EC50 was less than 50 nM.

How did the EC50 turn out when `O=C(COc1ccc(Cl)c(F)c1)NC12CC(NC(=O)c3cnc4cccnn34)(C1)C2` [Compound 760, N-{3-[2-(4-chloro-3-fluorophenoxy)acetamido]bicyclo[1.1.1]pentan-1-yl}imidazo[1,2-b]pyridazine-3-carboxamide] was run?
Its EC50 is greater than 2000 nM.

`CCc1ccc(C(=O)NC23CC(NC(=O)COc4ccc(Cl)c(F)c4)(C2)C3)cc1` [Compound 761, N-{3-[2-(4-chloro-3-fluorophenoxy)acetamido]bicyclo[1.1.1]pentan-1-yl}-4-ethylbenzamide] was tested. Which EC50 did it give?
The EC50 was greater than 2000 nM.

Which EC50 does the source give for `O=C(COc1ccc(Cl)c(F)c1)NC12CC(NC(=O)c3ccnnc3)(C1)C2` [Compound 762, N-{3-[2-(4-chloro-3-fluorophenoxy)acetamido]bicyclo[1.1.1]pentan-1-yl}pyridazine-4-carboxamide] here?
The EC50 was greater than 2000 nM.

`COc1cc(C(=O)NC23CC(NC(=O)COc4ccc(Cl)c(F)c4)(C2)C3)ccn1` [Compound 763, N-{3-[2-(4-chloro-3-fluorophenoxy)acetamido]bicyclo[1.1.1]pentan-1-yl}-2-methoxypyridine-4-carboxamide] was tested. Which EC50 did it give?
Its EC50 is greater than 2000 nM.

Which EC50 does the source give for `O=C(COc1ccc(Cl)c(F)c1)NC12CC(NC(=O)c3cccc(OC(F)F)c3)(C1)C2` [Compound 764, N-{3-[2-(4-chloro-3-fluorophenoxy)acetamido]bicyclo[1.1.1]pentan-1-yl}-3-(difluoromethoxy)benzamide] here?
The EC50 was greater than 2000 nM.

With `CC(=O)Nc1ccc(F)cc1C(=O)NC12CC(NC(=O)COc3ccc(Cl)c(F)c3)(C1)C2` [Compound 765, 2-acetamido-N-{3-[2-(4-chloro-3-fluorophenoxy)acetamido]bicyclo[1.1.1]pentan-1-yl}-5-fluorobenzamide] as the molecule, how does the EC50 read?
Its EC50 is 50 to 250 nM.

With `O=C(COc1ccc(Cl)c(F)c1)NC12CC(NC(=O)c3ccc4nccnc4c3)(C1)C2` [Compound 766, N-{3-[2-(4-chloro-3-fluorophenoxy)acetamido]bicyclo[1.1.1]pentan-1-yl}quinoxaline-6-carboxamide] as the molecule, how does the EC50 read?
Its EC50 is greater than 2000 nM.

With `Cn1cnc2cc(C(=O)NC34CC(NC(=O)COc5ccc(Cl)c(F)c5)(C3)C4)ccc21` [Compound 767, N-{3-[2-(4-chloro-3-fluorophenoxy)acetamido]bicyclo[1.1.1]pentan-1-yl}-1-methyl-1H-benzimidazole-5-carboxamide] as the molecule, how does the EC50 read?
Its EC50 is greater than 2000 nM.

With `NS(=O)(=O)c1cccc(C(=O)NC23CC(NC(=O)COc4ccc(Cl)c(F)c4)(C2)C3)c1` [Compound 768, N-{3-[2-(4-chloro-3-fluorophenoxy)acetamido]bicyclo[1.1.1]pentan-1-yl}-3-sulfamoylbenzamide] as the molecule, how does the EC50 read?
The EC50 was greater than 2000 nM.

How did the EC50 turn out when `O=C(COc1ccc(Cl)c(F)c1)NC12CC(NC(=O)c3ncoc3C3CC3)(C1)C2` [Compound 769, N-{3-[2-(4-chloro-3-fluorophenoxy)acetamido]bicyclo[1.1.1]pentan-1-yl}-5-cyclopropyl-1,3-oxazole-4-carboxamide] was run?
Its EC50 is greater than 2000 nM.

How did the EC50 turn out when `O=C(COc1ccc(Cl)c(F)c1)NC12CC(NC(=O)c3ncc(Cl)cc3F)(C1)C2` [Compound 770, 5-chloro-N-{3-[2-(4-chloro-3-fluorophenoxy)acetamido]bicyclo[1.1.1]pentan-1-yl}-3-fluoropyridine-2-carboxamide] was run?
Its EC50 is 1000 to 2000 nM.

`O=C(COc1ccc(Cl)c(F)c1)NC12CC(NC(=O)c3csc(N4CCOCC4)n3)(C1)C2` [Compound 771, N-{3-[2-(4-chloro-3-fluorophenoxy)acetamido]bicyclo[1.1.1]pentan-1-yl}-2-(morpholin-4-yl)-1,3-thiazole-4-carboxamide] was tested. Which EC50 did it give?
Its EC50 is greater than 2000 nM.

With `O=C(COc1ccc(Cl)c(F)c1)NC12CC(NC(=O)c3cn4cccnc4n3)(C1)C2` [Compound 772, N-{3-[2-(4-chloro-3-fluorophenoxy)acetamido]bicyclo[1.1.1]pentan-1-yl}imidazo[1,2-a]pyrimidine-2-carboxamide] as the molecule, how does the EC50 read?
Its EC50 is greater than 2000 nM.

For `O=C(COc1ccc(Cl)c(F)c1)NC12CC(NC(=O)c3ccc4ncsc4c3)(C1)C2` [Compound 773, N-{3-[2-(4-chloro-3-fluorophenoxy)acetamido]bicyclo[1.1.1]pentan-1-yl}-1,3-benzothiazole-6-carboxamide], which EC50 is on record?
Its EC50 is greater than 2000 nM.

For `Cc1nc2ccc(C(=O)NC34CC(NC(=O)COc5ccc(Cl)c(F)c5)(C3)C4)cc2s1` [Compound 774, N-{3-[2-(4-chloro-3-fluorophenoxy)acetamido]bicyclo[1.1.1]pentan-1-yl}-2-methyl-1,3-benzothiazole-6-carboxamide], which EC50 is on record?
Its EC50 is greater than 2000 nM.

`CCn1cncc1C(=O)NC12CC(NC(=O)COc3ccc(Cl)c(F)c3)(C1)C2` [Compound 775, N-{3-[2-(4-chloro-3-fluorophenoxy)acetamido]bicyclo[1.1.1]pentan-1-yl}-1-ethyl-1H-imidazole-5-carboxamide] was tested. Which EC50 did it give?
Its EC50 is greater than 2000 nM.

For `Cn1c(=O)n(C)c2cc(C(=O)NC34CC(NC(=O)COc5ccc(Cl)c(F)c5)(C3)C4)ccc21` [Compound 776, N-{3-[2-(4-chloro-3-fluorophenoxy)acetamido]bicyclo[1.1.1]pentan-1-yl}-1,3-dimethyl-2-oxo-2,3-dihydro-1H-benzimidazole-5-carboxamide], which EC50 is on record?
The EC50 was greater than 2000 nM.

For `Cc1cc(Cl)cnc1C(=O)NC12CC(NC(=O)COc3ccc(Cl)c(F)c3)(C1)C2` [Compound 777, 5-chloro-N-{3-[2-(4-chloro-3-fluorophenoxy)acetamido]bicyclo[1.1.1]pentan-1-yl}-3-methylpyridine-2-carboxamide], which EC50 is on record?
Its EC50 is greater than 2000 nM.

Which EC50 does the source give for `CC(=O)NCc1ccc(C(=O)NC23CC(NC(=O)COc4ccc(Cl)c(F)c4)(C2)C3)o1` [Compound 778, 5-(acetamidomethyl)-N-{3-[2-(4-chloro-3-fluorophenoxy)acetamido]bicyclo[1.1.1]pentan-1-yl}furan-2-carboxamide] here?
Its EC50 is greater than 2000 nM.

For `Cc1nc2ccc(C(=O)NC34CC(NC(=O)COc5ccc(Cl)c(F)c5)(C3)C4)cc2nc1C` [Compound 779, N-{3-[2-(4-chloro-3-fluorophenoxy)acetamido]bicyclo[1.1.1]pentan-1-yl}-2,3-dimethylquinoxaline-6-carboxamide], which EC50 is on record?
The EC50 was greater than 2000 nM.

`Cc1c(Cl)c(C(=O)NC23CC(NC(=O)COc4ccc(Cl)c(F)c4)(C2)C3)nn1C` [Compound 780, 4-chloro-N-{3-[2-(4-chloro-3-fluorophenoxy)acetamido]bicyclo[1.1.1]pentan-1-yl}-1,5-dimethyl-1H-pyrazole-3-carboxamide] was tested. Which EC50 did it give?
Its EC50 is greater than 2000 nM.

`O=C(COc1ccc(Cl)c(F)c1)NC12CC(NC(=O)c3cccc(C(F)(F)F)n3)(C1)C2` [Compound 781, N-{3-[2-(4-chloro-3-fluorophenoxy)acetamido]bicyclo[1.1.1]pentan-1-yl}-6-(trifluoromethyl)pyridine-2-carboxamide] was tested. Which EC50 did it give?
The EC50 was greater than 2000 nM.

Which EC50 does the source give for `O=C(COc1ccc(Cl)c(F)c1)NC12CC(NC(=O)c3ncn4ccccc34)(C1)C2` [Compound 782, N-{3-[2-(4-chloro-3-fluorophenoxy)acetamido]bicyclo[1.1.1]pentan-1-yl}imidazo[1,5-a]pyridine-1-carboxamide] here?
Its EC50 is greater than 2000 nM.

Reference: patent US10913727B2, “Modulators of the integrated stress pathway” (Calico Life Sciences LLC, priority 2016, dated 2021)
